What was measured:
[1] = Solubility of the compounds in tested solvents; format: physicochemical; set-up: key to solubility: “−” means NO solubility; “++” means VERY GOOD solubility
[2] = Viscosity measured at 23° C.; format: physicochemical; conditions: viscosity at 23° C.
Protocol: (§1) (nD^20) and viscosity n measured at 23° C. (η23° C.) for compounds of formula (I) according to the invention denoted as (Ib) and (Ic), and comparative compounds (C1), (C2) and (C3). Compound (Ib) is N,N′-bisacryloyl-N,N′-bisallyl-[…], and compound (Ic) is N,N′-bisacryloyl-N,N′-bispropyl-1,4-but-2-endiamine. Comparative compound (C1) is N,N′-bisacetyl-N,N′-bisallyl-1,4-but-2-endiamine, (C2) is N,N′-bisacryloyl-N,N′-bisallyl-1,4-butandiamine, and C(3) is N,N′-bisacryloyl-N,N′-bispropyl-1,4-butandiamine. In FIG. 1, RI is depicted by dark grey bars, and the viscosity η by light grey hatched bars. For comparative compound (C1), no viscosity η was determined (indicated by “*”), since this compound is a solid.

[3] = Refractive index (RI) measured at 20° C.; format: physicochemical
Protocol: as §1

[4] = Discoloration of the dental composition upon storage; format: physicochemical; conditions: storage at 50° C. for 30 days
From the text: Discoloration upon storage and/or during photocuring may be determined according to ISO 7491:2000(en).

[5] = refractive index at 20° C., tables
[6] = refractive index, preparative examples

Compound | solubility ([1]; EtOH) | solubility ([1]; acetone) | solubility ([1]; iPrOH) | solubility ([1]; methacrylic acid) | solubility ([1]; water) | η23° C. ([2]; tables) [mPa · s] | nD^20 [3, 5] | nD^20 [3, 6] | η23° C. ([2]; preparative examples) [Pa*s] | solubility in alcohols ([1]; alcohols like ethanol or isopropanol) | solubility ([1]; water/alcohol) | melting point [°C] | discoloration of the dental composition upon storage [4]
C=CCN(C/C=C/CN(CC=C)C(=O)C=C)C(=O)C=C [(Ia)] | ++ | ++***) | ++ | ++ | −**^) | 338.0 | 1.5290 |  |  |  |  |  | 
C=CC(=O)N(CCC)CCCCN(CCC)C(=O)C=C [(C3), N,N′-Bisacryloyl-N,N′-bispropyl-1,4-butandiamine] | ++ | ++ | ++ | ++ | − | 485.5 | 1.5150 | 1.515 | 486±1 |  |  |  | 
C=CCN(C/C=C/CN(CC=C)C(C)=O)C(C)=O [(C1), N,N′-Bisacetyl-N,N′-bisallyl-1,4-but-2-endiamine] | ++ | ++ | ++ | ++ | − |  |  | 1.505 |  |  |  | 32 | 
CC(C)(C)c1cc(O)c(C(C)(C)C)cc1O [DTBHQ] |  |  |  |  |  |  |  |  |  |  |  |  | no or almost no discoloration

The remaining lines, values ahead:

solubility ([1]; EtOH) | solubility ([1]; acetone) | solubility ([1]; iPrOH) | solubility ([1]; methacrylic acid) | solubility ([1]; water) | η23° C. ([2]; tables) [mPa · s] | nD^20 [3, 5] | nD^20 [3, 6] | η23° C. ([2]; preparative examples) [Pa*s] | solubility in alcohols ([1]; alcohols like ethanol or isopropanol) | solubility ([1]; water/alcohol) | melting point [°C] | discoloration of the dental composition upon storage [4] | Compound
++ | ++ | ++ | ++ | − | 409.0 | 1.5260 | 1.526 |  |  |  |  |  | C=CCN(C/C=C/C(C)N(CC=C)C(=O)C=C)C(=O)C=C (stereo not drawn) [Compound (Ib)]
++ | ++ | ++ | ++ | − | 427.5 | 1.5095 | 1.5095 | 428±3 |  |  |  |  | C=CC(=O)N(C/C=C/CN(CCC)C(=O)C=C)CCC [(Ic), N,N′-Bisacryloyl-N,N′-bispropyl-1,4-but-2-endiamine]
− | ++ | − | ++ | − | 382.0 | 1.5150 | 1.515 |  | not soluble | − |  |  | C=CCN(CCCCN(CC=C)C(=O)C=C)C(=O)C=C [(C2), N,N′-Bisacryloyl-N,N′-bisallyl-1,4-butandiamine]

Source: patent US11000454B2, “Dental composition” (DENTSPLY SIRONA inc., priority 2016, dated 2021)
